Data as given in paper PMC7034072, “Discovery of small molecule inhibitors of Leishmania braziliensis Hsp90 chaperone” (Journal of Enzyme Inhibition and Medicinal Chemistry, 2020).
Read-outs that look alike come from different tables or passages of the source.

Columns and labels:
[1] = tested on: LbHsp90 and LbHsp90N recombinant proteins; experiment: Differential scanning fluorimetry (thermal shift assay); format: binding, L. braziliensis; details: DSF; for Thermal shift: inclusion criterion Tm variation greater or equal to ± 2 °C in LbHsp90 or LbHsp90N, Yes/No
Method: The interaction of Hsp90 proteins with different compounds was monitored through the melting temperature (Tm) of each protein in the presence of a fixed concentration of the target compound by differential scanning fluorimetry (DSF) also referred as thermal shift assay. A final concentration of 10 µM of dimeric LbHsp90 and 20 µM of monomeric LbHsp90N in 40 mM Hepes buffer (pH 7.5) containing 100 mM KCl were used. The DMSO concentration in each sample was fixed at 2.5% (v/v). Prior to the readings, the samples were incubated for 30 min on ice. The fluorophore Sypro Orange (Life Technologies) was used as fluorescent probe. The experiments were performed at a thermocycler CFX96 Touch Real Time PCR Detection System (BioRad) and the data were analysed using the CFX Manager software (BioRad). As positive controls, 100 µM of GA and Radicicol (RDC) were used.

L. amazonensis = tested on: L. amazonensis; parameters: method as in PMID 31611575; details: determined against L. amazonensis ref 36; read-out: IC50 (L. braziliensis column); cited from earlier work
LbHsp90N [2] = biological target: LbHsp90N; parameters: method as in PMID 22910377; details: measured by Tryptophan fluorescence quenching ref 31; read-out: KDapp LbHsp90N; cited from earlier work
LbHsp90 [3] = biological target: T1, LbHsp90 (Leishmania braziliensis, UniProt A4HL70); parameters: method as in PMID 22910377; details: measured by Tryptophan fluorescence quenching ref 31; read-out: KDapp LbHsp90; cited from earlier work
LbHsp90 [4] = biological target: T1, LbHsp90; experiment: ATPase activity inhibition assay (EnzChek Pi quantification); format: biochemical
Method: (§1) The ATPase activity of LbHsp90 and hHsp90β was evaluated spectrophotometrically through inorganic phosphate (Pi) quantification following ATP hydrolysis, by the EnzChek™ assay kit (Invitrogen®) as previous described[31]^,[34]. Briefly, a 2 µM solution of LbHsp90 and hHsp90β enzymes was prepared in 150 mM NaCl, 5 mM MgCl2 and 20 mM Tris-HCl, pH 7.5, and incubated with ATP (concentration range 0–5 mM) for 60 min at 37 °C. Then, the chromogenic substrate 2-amino-6-mercapto 7-methyl purine riboside (MESG) and the purine nucleoside phosphorylase (PNP) were added and the resulting reaction mixture was incubated for 30 min at 37 °C. The assays were performed in a 96-well plate and kinetic parameters determined by Michaelis–Menten fitting using GraphPad Prism 6 software.
The inhibitory activity against LbHsp90 and hHsp90β of compounds showing interaction in DSF assays (namely Glb08, Glb15, Gl23, Glb25 and Glb27) was determined using spectrophotometric ATPase activity assays as described above. Initial screenings were performed using 50 μM compound concentration in a reaction mixture consisting of 2 μM enzyme and 2.5 mM ATP. After 1 h incubation at 37 °C, MESG and PNP were added. The amount of Pi was estimated after 30 min incubation at 37 °C. GA was used as reference compound, reporting 100% ATPase activity inhibition (at 50 μM). […] A compound concentration ranging from 1 to 75 μM was included in the reaction mixture and Pi quantification performed as previously described (measurements were performed in triplicate). IC50 values were determined by non-linear regression data fitting (using GraphPad Prism 6 software).

[5] = tested on: promastigote form of L. braziliensis; experiment: Cell viability assay (MTT/PMS), single concentration; format: cell-based; details: L. braziliensis promastigotes, 200 μM/well; for Cell viability: 72 h, MTT/PMS, Yes = leishmanicidal activity; for reduced cell viability: after 72 h
Method: The leishmanicidal activity of the compounds was tested in vitro against the promastigote form of L. braziliensis applying 200 μM/well, (with a total of 0.5% DMSO) into 90 μL of culture. The concentration of L. braziliensis (MHOM/BR/1973/M2269) was adjusted to 10^7 cells/mL. Amphotericin (100 μM/well) was used as positive control, and 0.5% DMSO as negative control.
The plates were incubated at room temperature (RT) for 72 h. After this period, the viability of the promastigotes was verified via MTT (3–(4, 5-Dimethylthiazol-2-yl)-2, 5-Diphenyltetrazolium Bromide) colorimetric assay. MTT/PMS 11.1 μL/well solution (MTT = 5 mg/mL; Phenazine methosulfate-PMS = 0.22 mg/mL) was added, and the plate was incubated at RT for 4 h, at 150 RPM, protected from light. Formazan crystals were then solubilised by adding 100 μL/well of a solubilisation solution containing 7% SDS, 10 mM HCl and 30% DMSO. The mixture was incubated at RT for 90 min at 150 RPM protected from light. Wells containing the medium and the compounds or DMSO without MTT were used as blank controls. The absorbance was quantified in a plate reader (Biotek Synergy HT) at 570 nm.
The cell viability percentages were calculated by the following equation: (1) Cell viability %= AT−AB/AU−AB ×100 where AT was an averaged absorbance from treated samples, AB blank absorbance and AU was an averaged absorbance from negative control.

hHsp90β [6] = biological target: T2, hHsp90β (Homo sapiens, UniProt P08238); experiment: ATPase activity inhibition assay (EnzChek Pi quantification); format: biochemical; details: 50 μM compound, 2 μM enzyme, 2.5 mM ATP
T2 construct: made in house; host or cells: Escherichia coli BL21(DE3)
Method: as §1
Initial screenings were performed using 50 μM compound concentration in a reaction mixture consisting of 2 μM enzyme and 2.5 mM ATP. After 1 h incubation at 37 °C, MESG and PNP were added. The amount of Pi was estimated after 30 min incubation at 37 °C. […] A compound concentration ranging from 1 to 75 μM was included in the reaction mixture and Pi quantification performed as previously described (measurements were performed in triplicate). IC50 values were determined by non-linear regression data fitting (using GraphPad Prism 6 software).

LbHsp90N [7] = experiment: Tryptophan fluorescence quenching interaction assay; format: binding, L. braziliensis; details: N-terminal domain, read-out: KDapp LbHsp90N
Method: (§2) Two µM of protein in 40 mM Hepes buffer (pH 7.5), 100 mM KCl, was incubated for 30 min on ice with increasing concentrations of the compounds diluted in DMSO. […] The samples were excited at 280 nm and the emission was collected in the 300–400 nm range, in a 1.0 × 0.2 cm optical path cuvette, on an F-4500 Fluorescence Spectrophotometer (Hitachi). The fluorescence quenching was analysed at the maximum emission wavelength in the absence of ligand. The determination of the apparent dissociation constant (KDapp) was performed by fitting the fluorescence values obtained for each compound concentration according to a dose-response model through the Equation (3): (3) y = Fmin + (Fmax−Fmin)/(1+10^(logKD− [ligand])) where Fmin and Fmax are the minimum and maximum fluorescence intensity and [ligand] is the compound concentration used in the assay, according to the GraphPad Prism 5 software. The fluorescence intensities were corrected by inner filter effects as previously described.

[8] = tested on: promastigote forms of L. braziliensis; experiment: In vitro IC50 determination (leishmanicidal activity, MTT/PMS); format: cell-based; details: promastigotes, 72 h, RT
Method: Amphotericin 100 μM/well and 0.5% DMSO were used as positive and negative control, respectively. The plates were incubated at RT for 72 h. After this, the viability of the promastigotes was verified by MTT/PMS colorimetric assay, as described above. In vitro leishmanicidal activity, expressed as IC50, was determined using GraphPad Prism 5 software according to the following equation: (2) y= Amin + Amax−Amin/1+10^logIC50 −x*Hillslope where Amin and Amax are, respectively, the minimum and maximum activities obtained, x is the ligand concentration and Hill Slope is the parameter that describes the steepness of the curve.
The selectivity index parameter was obtained by the ratio of compound IC50 against mammalian cells and compound IC50 against promastigote cells.

hHsp90β [9] = biological target: T2, hHsp90β; experiment: Tryptophan fluorescence quenching interaction assay; format: binding; details: full-length, tryptophan fluorescence quenching; read-out: KDapp hHsp90β
Method: as §2

LbHsp90 [10] = biological target: T1, LbHsp90; experiment: as above; format: binding; details: full-length, tryptophan fluorescence quenching; read-out: KDapp LbHsp90
Method: as §2

hHsp90βN = biological target: T3, hHsp90βN (Homo sapiens, UniProt P08238); experiment: as above; format: binding; details: N-terminal domain, read-out: KDapp hHsp90βN
T3 construct: N-terminal domain construct (Hsp90βN – residues 1–223); His-tag (cleaved yes); made in house; host or cells: Escherichia coli BL21(DE3)
Method: as §2

[11] = tested on: Balb-c 3T3 clone A31 mouse fibroblasts; experiment: Cytotoxic assay (MTT); format: cell-based; details: Balb-c 3T3 mouse fibroblasts, 72 h, 37 °C
Method: Compounds cytotoxicity was evaluated in 100 μL of Balb-c 3T3 cone A31 mouse fibroblasts (10^5 cells/mL) into a 96-well plate, incubated for 24 h at 37 °C to become adhered. After this period, the medium was washed and 100 μL of each compound was added to the culture medium (concentration ranging from 1 to 200 μM/well, with a total of 0.5% DMSO) in quadruplicate. Rapamycin was used as a positive control, and 0.5% DMSO was used as negative control. The plates were incubated for 72 h at 37 °C. After this, the viability of Balb-c 3T3 cells was evaluated by MTT colorimetric assay, as described previously.

[12] = compound 1 to 75 μM, triplicate, read-out: IC50 LbHsp90 ATPase activity inhibition

T2 sequence (P08238 whole entry): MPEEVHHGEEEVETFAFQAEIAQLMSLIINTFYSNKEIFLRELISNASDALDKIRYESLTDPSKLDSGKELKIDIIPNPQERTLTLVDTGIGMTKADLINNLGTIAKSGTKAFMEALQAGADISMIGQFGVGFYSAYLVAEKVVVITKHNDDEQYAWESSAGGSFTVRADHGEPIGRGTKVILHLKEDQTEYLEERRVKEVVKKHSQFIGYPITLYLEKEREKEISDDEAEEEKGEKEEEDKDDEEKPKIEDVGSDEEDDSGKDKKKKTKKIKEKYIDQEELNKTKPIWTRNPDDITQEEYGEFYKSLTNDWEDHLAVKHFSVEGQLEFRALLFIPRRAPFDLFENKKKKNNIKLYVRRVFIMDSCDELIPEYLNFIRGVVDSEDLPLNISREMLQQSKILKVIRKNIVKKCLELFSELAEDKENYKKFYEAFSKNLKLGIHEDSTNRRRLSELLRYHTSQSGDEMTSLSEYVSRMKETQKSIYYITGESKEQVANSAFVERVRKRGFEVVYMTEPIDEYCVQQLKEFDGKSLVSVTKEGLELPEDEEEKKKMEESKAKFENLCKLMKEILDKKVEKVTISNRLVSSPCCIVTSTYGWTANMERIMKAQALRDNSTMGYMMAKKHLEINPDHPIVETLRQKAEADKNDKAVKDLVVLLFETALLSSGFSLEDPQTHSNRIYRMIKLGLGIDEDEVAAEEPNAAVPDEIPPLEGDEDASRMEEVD
T3 sequence (P08238 1-223): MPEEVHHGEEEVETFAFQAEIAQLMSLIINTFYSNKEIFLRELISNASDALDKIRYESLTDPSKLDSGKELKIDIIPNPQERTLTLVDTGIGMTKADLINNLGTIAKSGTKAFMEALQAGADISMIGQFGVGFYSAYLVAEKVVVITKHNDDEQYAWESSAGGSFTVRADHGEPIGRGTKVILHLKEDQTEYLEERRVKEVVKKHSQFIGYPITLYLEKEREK
T1 sequence (A4HL70 entry or part of it): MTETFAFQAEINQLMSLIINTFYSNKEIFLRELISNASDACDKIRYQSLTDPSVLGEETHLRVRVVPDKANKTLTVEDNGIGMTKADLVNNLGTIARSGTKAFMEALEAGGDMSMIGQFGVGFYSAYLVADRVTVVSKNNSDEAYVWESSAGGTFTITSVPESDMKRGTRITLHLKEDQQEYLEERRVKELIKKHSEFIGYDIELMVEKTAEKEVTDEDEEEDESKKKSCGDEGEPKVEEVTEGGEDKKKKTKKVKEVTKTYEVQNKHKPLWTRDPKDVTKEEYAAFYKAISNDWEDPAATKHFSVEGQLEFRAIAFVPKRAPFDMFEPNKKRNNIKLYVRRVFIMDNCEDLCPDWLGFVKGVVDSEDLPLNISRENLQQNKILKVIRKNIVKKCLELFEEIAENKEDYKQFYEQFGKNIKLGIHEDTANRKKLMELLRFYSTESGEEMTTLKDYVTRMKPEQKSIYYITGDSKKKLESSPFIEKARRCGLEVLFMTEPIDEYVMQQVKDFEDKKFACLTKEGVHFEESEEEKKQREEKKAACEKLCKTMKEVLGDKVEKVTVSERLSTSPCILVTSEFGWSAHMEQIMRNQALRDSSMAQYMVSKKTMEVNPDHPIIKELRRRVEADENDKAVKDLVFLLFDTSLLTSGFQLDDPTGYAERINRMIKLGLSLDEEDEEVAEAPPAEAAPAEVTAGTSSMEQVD

COC1=C2C[C@@H](C)C[C@H](OC)[C@H](O)[C@@H](C)/C=C(\C)[C@H](OC(N)=O)[C@@H](OC)/C=C\C=C(/C)C(=O)NC(=CC1=O)C2=O [GA, geldanamycin, reference compound]
ΔTm ([1]; 100 µM positive controls, protein stabilisation): > 2.0 °C | IC50 (L. amazonensis): 0.19 µM | Kd (LbHsp90N [2]): 1.8 ± 0.3 µM | Kd (LbHsp90 [3]): 7.6 ± 0.2 µM | IC50 (LbHsp90 [4]): 9 µM | inhibition at 50 µM (LbHsp90 [4]; read-out: percentage inhibition of LbHsp90 ATPase activity): 100% | Cell viability [5]: Yes | percentage inhibition of hHsp90β ATPase activity (hHsp90β [6]): fully inhibits enzyme activity

N=C(N)Nc1nc(-c2ccccc2)c2ccccc2n1 [Glb08]
Thermal shift [1]: positive outcomes and Yes | IC50 (LbHsp90 [4]; [12]): 30 ± 1 µM | Kd (LbHsp90N [7]): 17 ± 6 µM | IC50 [8]: 43 ± 2 µM | Kd (hHsp90β [9]): 20 ± 5 µM | Kd (LbHsp90 [10]): 13 ± 4 µM | Kd (hHsp90βN): 29 ± 3 µM | IC50 [11]: 75 ± 3 µM | Cell viability [5]: Yes | reduced cell viability [5]: more than 60% | percentage inhibition of hHsp90β ATPase activity (hHsp90β [6]): lower than 60%

N=C(N)NN=Cc1cnn(Cc2ccccc2)c1 [Glb15]
Thermal shift [1]: No | IC50 (LbHsp90 [4]; [12]): 36 ± 1 µM | Kd (LbHsp90N [7]): 13 ± 3 µM | IC50 [8]: 71 ± 2 µM | Kd (hHsp90β [9]): 14 ± 6 µM | Kd (LbHsp90 [10]): 14 ± 4 µM | Kd (hHsp90βN): 12 ± 3 µM | IC50 [11]: > 200 µM | Cell viability [5]: Yes | reduced cell viability [5]: more than 60% | percentage inhibition of hHsp90β ATPase activity (hHsp90β [6]): lower than 60%

Cc1cc(CSC(=N)N)c2oc(-c3ccccc3)cc(=O)c2c1 [Glb25]
Thermal shift [1]: positive outcomes and Yes | Kd (LbHsp90N [7]): 12 ± 2 µM | IC50 [8]: > 200 µM | Kd (hHsp90β [9]): 15 ± 9 µM | Kd (LbHsp90 [10]): 7 ± 3 µM | Kd (hHsp90βN): 14 ± 3 µM | IC50 [11]: 11 ± 1 µM | Cell viability [5]: Yes | reduced cell viability [5]: more than 60% | percentage inhibition of hHsp90β ATPase activity (hHsp90β [6]): lower than 60%
